T1: NR1H2 (Homo sapiens, UniProt P55055)
T1 construct: amplification of the complete open reading frame from ATG start codon to the stop codon of drugable genes; expressed in transfected cells; host or cells: primary human bone-marrow MPCs, adenoviral transduction (Ad5-NR1H2 with Ad-hCAR)
T1 sequence (P55055 1-460): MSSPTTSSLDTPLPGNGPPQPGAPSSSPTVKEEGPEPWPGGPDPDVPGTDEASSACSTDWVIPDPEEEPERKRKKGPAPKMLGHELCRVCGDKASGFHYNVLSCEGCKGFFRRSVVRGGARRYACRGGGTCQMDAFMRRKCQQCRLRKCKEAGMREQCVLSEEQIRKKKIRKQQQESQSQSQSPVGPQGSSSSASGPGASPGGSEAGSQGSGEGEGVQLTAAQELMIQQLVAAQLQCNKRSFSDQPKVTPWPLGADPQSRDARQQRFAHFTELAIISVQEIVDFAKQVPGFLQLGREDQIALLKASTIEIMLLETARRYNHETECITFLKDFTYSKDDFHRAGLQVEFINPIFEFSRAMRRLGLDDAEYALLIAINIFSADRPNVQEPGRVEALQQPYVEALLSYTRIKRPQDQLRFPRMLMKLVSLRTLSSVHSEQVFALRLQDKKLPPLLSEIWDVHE

T2: NR1H3 (Homo sapiens, UniProt Q13133)
T2 construct: amplification of the complete open reading frame from ATG start codon to the stop codon of drugable genes; expressed in transfected cells; host or cells: primary human bone-marrow mesenchymal progenitor cells (MPCs), adenoviral transduction (Ad5-NR1H3 with Ad-hCAR)
T2 sequence (Q13133 1-447): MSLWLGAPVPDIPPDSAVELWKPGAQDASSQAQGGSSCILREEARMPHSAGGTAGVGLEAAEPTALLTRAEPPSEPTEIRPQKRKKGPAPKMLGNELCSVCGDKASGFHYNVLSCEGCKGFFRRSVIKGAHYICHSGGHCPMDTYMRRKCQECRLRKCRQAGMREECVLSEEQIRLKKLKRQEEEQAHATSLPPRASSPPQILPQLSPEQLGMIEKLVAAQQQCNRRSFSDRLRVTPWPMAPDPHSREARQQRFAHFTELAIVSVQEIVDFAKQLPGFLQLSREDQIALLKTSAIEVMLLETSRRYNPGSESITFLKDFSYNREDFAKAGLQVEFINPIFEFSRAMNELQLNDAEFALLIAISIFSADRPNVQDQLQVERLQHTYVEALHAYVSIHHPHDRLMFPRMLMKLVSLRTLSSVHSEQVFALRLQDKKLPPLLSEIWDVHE


Assays:
GPR65 = biological target: T3, GPR65 (Homo sapiens, UniProt Q8IYL9); assay: Alkaline phosphatase (AP) assay in MPCs infected with Ad-GPR65 and treated with ligand; type: cell-based; conditions: MPCs infected with Ad-GPR65, increasing ligand concentrations
T3 construct: amplification of the complete open reading frame from ATG start codon to the stop codon of drugable genes; expressed in transfected cells; host or cells: primary human bone-marrow MPCs, adenoviral transduction (Ad-GPR65 with Ad-hCAR)
T3 sequence (Q8IYL9 whole entry): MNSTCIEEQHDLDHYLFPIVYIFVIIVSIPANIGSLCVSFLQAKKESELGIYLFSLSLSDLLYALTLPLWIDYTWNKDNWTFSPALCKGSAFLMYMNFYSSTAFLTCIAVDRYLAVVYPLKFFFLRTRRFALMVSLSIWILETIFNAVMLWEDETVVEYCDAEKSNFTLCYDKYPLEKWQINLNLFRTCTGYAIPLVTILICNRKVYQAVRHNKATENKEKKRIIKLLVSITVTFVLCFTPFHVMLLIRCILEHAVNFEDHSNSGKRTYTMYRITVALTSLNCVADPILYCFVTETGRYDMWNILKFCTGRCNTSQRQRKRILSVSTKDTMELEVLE
Protocol: These dose-response curves are depicted in FIG. 5. A dose-response curve for AP activity is generated for MPCs infected with Ad-NR1H3 and treated with T0901317 (FIG. 5A). MPCs are seeded on day 0 at 1000 cells per well of a 384 well plate and co-infected the next day using AdC51-hCAR (MOI 250) and different MOIs of Ad5-NR1H3 (MOI 12000, 4000, 1333, 444). On day 1, 5 concentrations (1E-10M, 1E-9M, 1E-8M, 1E-7M, 1E-6M) of the compound T0901317 (Cayman Chemical, Michigan USA, Cat. No. 71810) with fixed vehicle concentration (the vehicle is DMSO at the concentration is 0.01 %) are added to the wells. After incubation for 6 days at 37° C., 10% CO2 in a humidified incubator, up-regulation of alkaline phosphatase is read: 15 μl MUP is added to each well, the plates are incubated for 15 min at 37° C. and monitored for AP activity using a fluorescence plate reader (Fluostar, BMG).
Dose-response curves for AP activity are generated in a similar way for MPCs infected with Ad-GPR65 and treated with 1-b-D-Galactosylsphingosine (FIG. 5B); for MPCs infected with Ad-AVPR2 and treated with [deamino-Cys1, D-Arg8]-Vasopressin (DDAVP) (FIG. 5C).

NR1H2 = biological target: T1, NR1H2; assay: Alkaline phosphatase (AP) assay in MPCs infected with Ad-NR1H2 and treated with ligand; type: cell-based; conditions: MPCs infected with Ad-NR1H2, increasing ligand concentrations, MUP readout after 7, 10 and 13 days
Protocol: (§1) After 6 days, medium is removed and replaced with fresh medium containing the same concentrations of the compound T0901317. Readouts of AP activity are performed at several time points after the start of the experiment, typically after 7, 10 and 13 days. Up-regulation of alkaline phosphatase activity is read as follows: medium is removed from the monolayers, 15 μl MUP is added to each well, the plates are incubated for 15 min at 37° C. and then read for AP activity using a fluorescence plate reader (Fluostar, BMG).
as §1, with “MPCs are seeded on day 0 at 1000 cells per well of a 384 well plate and co-infected the next day using AdC51-hCAR (MOI 250) and different MOIs of Ad5-NR1H2 (MOI 2000, 666). On day 1, 9 concentrations (1.52E-9M, 4.57E-9M, 1.37E-8M, 4.12E-8M, 1.23E-7M, 3.7E-7M, 1.11E-6M, 3.33E-6M, 1E-5M) of the compound GW3965 with fixed vehicle concentration (DMSO at final concentration of 0.161%) are added to the wells. After” for “After”, “GW3965.” for “T0901317.”
After 6 days, medium is removed and replaced with fresh medium containing the same concentrations of the compound APD. Readouts of AP activity are performed at several time points after the start of the experiment, typically after 7, 10 and 13 days. Up-regulation of alkaline phosphatase activity is read as follows: medium is removed from the monolayers, 15 μl MUP is added to each well, the plates are incubated for 15 min at 37° C. and then read for AP activity using a fluorescence plate reader (Fluostar, BMG).

NR1H3 = biological target: T2, NR1H3; assay: Alkaline phosphatase (AP) assay in MPCs infected with Ad-NR1H3 and treated with ligand; type: cell-based; conditions: MPCs infected with Ad-NR1H3, increasing ligand concentrations, MUP fluorescence readout
Protocol: Cellular AP activity is determined 6 days after the infection (or ligand addition—see below). The principle of the assays is depicted in FIG. 2. Mesenchymal stem cells derived from bone marrow are infected with the FLeXSelect™ cDNA library viruses in the presence of Ad5C15-hCAR or Ad5C20-hCAR virus. Six days after the start of infection or treatment with a ligand, endogenous alkaline phosphatase activity is measured following addition of 4-methylumbelliferyl […] (MUP) substrate.
The stocks of the Ad-control-viruses are generated in 96 well plates (control plate). The 2 μl volume corresponds to a theoretical MOI of 5000. Controls are: P1=Ad-BMP2; P2=Ad-H4-2; P3=Ad-H4-291; N1=Ad-LacZ; N2=Ad-empty; N3=Ad-eGFP. Up-regulation of alkaline phosphatase is read at 6 days post infection (6 dpi): 15 μl 4-Methylumbelliferyl-phosphate (MUP, Sigma) is added to each well, the plates are incubated for 15 min at 37° C. and monitored for AP activity using a fluorescence plate reader (Fluostar, BMG).
These dose-response curves are depicted in FIG. 5. […] MPCs are seeded on day 0 at 1000 cells per well of a 384 well plate and co-infected the next day using AdC51-hCAR (MOI 250) and different MOIs of Ad5-NR1H3 (MOI 12000, 4000, 1333, 444).
After 6 days, medium is removed and replaced with fresh medium containing the same concentrations of the compound GW3965. Readouts of AP activity are performed at several time points after the start of the experiment, typically after 7, 10 and 13 days.
After 6 days, medium is removed and replaced with fresh medium containing the same concentrations of the compound APD.

MPCs = assay: Up-regulation of NR5A2 and NR1H3 mRNA levels by osteogenic triggers in MPCs; type: cell-based, human; conditions: final concentration 0.1 μM, versus vehicle, several time points
Protocol: 100,000 MPCs are seeded in each well of a 6 well plate in 2 ml MPC medium, containing 10% FCS. The next day, after incubation at 37° C., 10% CO2 in a humidified incubator, cells are co-infected with AdC15-hCAR (final MOI of 750) and Ad-BMP2, Ad-RUNX2, Ad-MSX2, Ad-PTHR1/PTHLH or Ad-eGFP or Ad-luciferase as negative controls (final MOIs of 1250 and 2500). Alternatively, cells are treated with dexamethasone (final concentration 0.1 μM), VitD3 (final concentration 0.1 μM) or the vehicle controls (0.1% EtOH or DMSO). Cells are incubated at 37° C., 10% CO2 in a humidified incubator for a further six days unless cells are already harvested for RNA isolation. Virus is removed and replaced by 2 ml fresh OS medium (proprietary medium containing 10% FCS). Over the next 18 days, medium is refreshed 3 times per 2 weeks. Every other time, medium is refreshed half or completely. […] The fold up-regulation of NR5A2 or NR1H3 mRNA compared to negative controls (vehicle for dexamethasone or VitD3 treatment) or Ad-luciferase for Ad-infections) is calculated (FIG. 16).

[1] = system: calvarial skull bones (hemicalvaria); assay: Calvarial skull assay (bone organ culture, weight and histological readout); set-up: species or system CD1 mice; conditions: histological readout
Protocol: CD1 pups are harvested around birth from CD1 female mice (received from Janvier (Le Genest St Isle, France) when they were 11 days pregnant). Pups are decapitated and the calvarial skull is dissected and split into 2 hemicalvaria. Hemicalvaria are blotted using sterile gauze, weighed and cultured in 24 well plates (MEMalpha or BGJb-Fitton-Jackson medium containing 50 μg/ml L-ascorbic acid (Sigma, A-4034), 5 mM β-glycerophosphate (Sigma, G-9891) and Penicillin-Streptomycin (Invitrogen Cat # 15140-122)). Small molecules (ligands, agonists, antagonists) are tested in at least three-fold at a minimum of 3 concentrations. Each small molecule is added to the medium on day 0 and added again when refreshing the medium (every 2-3 days). Three to 16 days after the start of the experiment, skulls are weighed again after blotting them dry using sterile gauze. The weight difference is calculated, expressed as percent weight change and the mean and standard deviations (SD) are calculated for the triplicate measurements. Data are analyzed using the Student's t-test.
The formation of new osteoid is analyzed histologically as follows: hemicalvaria are fixed in 10% buffered formalin for at least 2 days, decalcified in 10% EDTA overnight, processed through graded alcohols and embedded in paraffin wax. Three to 10 μm sections are prepared of the calvaria and stained with hematoxylin and eosin (H&E). Healthy cells, dead cells, old and new bone, and collagen are identified by their distinctive morphology and colouring observed after H&E staining. The surfaces taken by these are measured stereologically (μm^2 readout) and termed Osteoblast area, Debris area, Native and New bone area, Collagen area and Total area (sum of the previous 5 areas), respectively. In addition, the thickness (μm readout) is measured at 8 positions, evenly spaced over the section.
The histological readout of the calvarial skull assay is developed using known osteogenic agents. Hemicalvaria were treated with recombinant human parathyroid hormone (rhPTH).
T0901317 is added to the culture medium of the dissected hemicalvaria at the day of dissection at several doses (19.5, 78.1 and 313 nM), in fourfold. The concentration of the solvent (vehicle), DMSO, is fixed at a final concentration of 0.05%. The medium, containing T0901317 or vehicle control is refreshed every 2-3 days. Hemicalvaria are harvested 7 days after the initiation of the experiment and subjected to the histological analysis described above.

Molecule	up-regulation of alkaline phosphatase (AP) activity (NR1H2)	up-regulation of endogenous alkaline phosphatase (AP) activity (NR1H3)	further results
CCCCCCCCCCCCCC=CC(O)C(N)CO[C@@H]1O[C@H](CO)[C@H](O)[C@H](O)[C@H]1O (stereo partly drawn) [1-b-D-Galactosylsphingosine]			up-regulation of endogenous alkaline phosphatase (AP) activity (GPR65): dose-dependently increase
CC(=O)Oc1ccc2c(c1)[C@@]1(C)CCC[C@](C)(C(=O)OC(=O)[C@@]3(C)CCC[C@]4(C)c5cc(OC(C)=O)ccc5CC[C@@H]34)[C@@H]1CC2 [APD, acetyl podocarpic dimer]	dose-response relation	dose-response relation	
O=C(O)Cc1cccc(OCCCN(Cc2cccc(C(F)(F)F)c2Cl)CC(c2ccccc2)c2ccccc2)c1 [GW3965]	dose-response relation	dose-response relation	
C=C1CC[C@H](O)C/C1=C/C=C1\CCC[C@]2(C)[C@@H]([C@H](C)CCCC(C)C)CC[C@@H]12 [VitD3]			NR5A2 mRNA levels (MPCs): up-regulated
PTH: recombinant human parathyroid hormone, known osteogenic agent (protein, UniProt P01270 32-115, looked up, Parathyroid hormone, recombinant human parathyroid hormone, known osteogenic agent) Parathyroid hormone: SVSEIQLMHNLGKHLNSMERVEWLRKKLQDVHNFVALGAPLAPRDAGSQRPRKKEDNVLVESHEKSLGEADKADVNVLTKAKSQ			effect on bone tissue ([1]; 10^−7 M): resorptive effect; effect on bone tissue ([1]; 10^−11 M): induces bone build-up

Source: patent US20060014231A1, “Methods and compositions to promote bone homeostasis” (priority 2004, published 2006)
